Values after ≈ are worked out from the molar mass of the structure shown.

In assay [1] the test system is E. coli ATCC 25922. The experiment in a line: Antibacterial activity, minimum inhibitory concentration (MIC) in vitro, broth dilution. It is filed as cell-based. The note with it: Escherichia coli, ATCC25922, 5×10^5 cfu/mL, 35 °C, 18-24 hours. The procedure: (§1) The minimum inhibitory concentration (MIC) in vitro was determined according to CLSI's guidelines, and a minimal broth dilution method was used.
(§2) The test process was briefly described as follows: the tested compound was dissolved in DMSO to prepare a storage solution of […], and then prepared into 11 two-fold-diluted 100× high-concentration working liquids (a final concentration of the system was 64 μg/mL to 0.06 μg/mL) by DMSO. Stains (K. pneumoniae ATCC13883, K. pneumoniae ATCC51504 and E. coli ATCC 25922) frozen at −80 °C with glycerin were inoculated to a solid agar culture medium, placed into an incubator for culturing for 18-24 hours at 35 °C to finish the preparation work of the strains. A proper amount of solid plate culture was collected, re-suspended in normal saline, and uniformly mixed. The turbidity of the bacterial suspension was adjusted to a proper turbidity by a turbidity meter, containing about 1×10^8 cfu/mL of bacteria. Then, the turbidity-regulated bacterial suspension was diluted with a test culture medium (type: CAMHIIB, purchased from BD company) to a bacterial concentration of 5×10^5 cfu/mL, thus finishing the preparation of an inoculation solution. 198 μL of the inoculation solution was inoculated into a 96-well plate, and added with 2 μL 100× high concentration working liquid of the compound, then the 96-well plate was placed at 35 °C for culturing for 18-24 hours.
A general note: Broth dilution looks for growth in wells or tubes with falling amounts of substance.

The test system of assay [2] is K. pneumoniae ATCC51504. The assay is described as above. It is filed as cell-based. The note with it: Klebsiella pneumoniae, 5×10^5 cfu/mL, 35 °C, 18-24 hours. As for the experimental part:
as §1, §2

Assay [3] has as its target T1, recombinant Pseudomonas aeruginosa LpxC (Pseudomonas aeruginosa, UniProt P47205).
T1 construct: purchased Signalway Antibody AP74647-2
T1 sequence (P47205 1-303): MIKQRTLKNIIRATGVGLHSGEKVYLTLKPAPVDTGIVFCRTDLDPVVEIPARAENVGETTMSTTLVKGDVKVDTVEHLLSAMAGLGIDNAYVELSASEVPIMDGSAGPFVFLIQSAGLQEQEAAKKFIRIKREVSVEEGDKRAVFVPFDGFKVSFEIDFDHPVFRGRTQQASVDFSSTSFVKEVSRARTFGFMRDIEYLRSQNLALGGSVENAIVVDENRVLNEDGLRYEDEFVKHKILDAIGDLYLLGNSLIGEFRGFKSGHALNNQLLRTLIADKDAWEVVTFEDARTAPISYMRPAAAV
As to the kind of experiment: Inhibition of enzymatic activity of recombinant Pseudomonas aeruginosa LpxC in vitro. It is filed as biochemical. The note with it: 5 nM LpxC; substrate UDP-3-O—(R-3-hydroxydecanoyl)-GlcNAc; 25 °C, 120 minutes; fluorescamine readout. The procedure: The following method was used to determine degrees of inhibition of the compounds of the present invention on the enzymatic activity of recombinant Pseudomonas aeruginosa LpxC in vitro.
The test process was briefly described as follows: the tested compound was first dissolved in DMSO to prepare a 10 mM storage solution. The reaction was carried out in a 96-well microplate. Firstly, 20 μL of recombinant Pseudomonas aeruginosa LpxC (purchased from Signalway Antibody, article number AP74647-2) was added into the wells, and the final concentrations were 5 nM respectively. 5 μL of the compound to be tested was added, diluted in 4-fold, with 8 concentration points, and the concentration range was 0.61-10000 nM. 5 μL of LpxC substrate UDP-3-O—(R-3-hydroxydecanoyl)-GlcNAc (purchased from Biosynth Carbosynth, article number mu75071) was added, wherein a final concentration of the substrate was […], and the substrate was incubated at 25 °C for 120 minutes. Subsequently, 20 μL of 2.0 mg/mL fluorescamine (purchased from sigma aldrich, article number F9015, wherein a solvent was dimethylformamide/acetonitrile (1:1)) was added to the reaction system, mixed evenly and reacted for 10 minutes. Finally, 50 μL of 200 mM sodium phosphate buffer solution (pH 8.0) was added to stop the reaction, and a microplate reader (BMG) was used for reading. An excitation wavelength and an emission wavelength were 390 nm and 495 nm respectively. Compared with the fluorescence intensity ratio of a control group (0.1% DMSO), the percentage inhibition rates of the compounds at each concentration were calculated, and the IC50 values of the compounds were obtained by performing nonlinear regression analysis with logarithmic value of the compound concentration-inhibition rate by GraphPad Prism 5 software, which can be seen in Table 1.

In general, MIC refers to the smallest concentration in the dilution series that meets the test's criterion for growth inhibition. High values mean a need for much substance, low ones inhibition by little substance. What is called IC50 is the point on the concentration scale where inhibition reaches its midpoint. For the compound `C[C@H](O)c1nccn1Cc1cc(-c2ccc(C#CC3=CCN(C(=O)C4CC4)CC3)cc2)on1` [Example 36, (S)-cyclopropyl(4-((4-(3-((2-(1-hydroxyethyl)-1H-imidazol-1-yl)methyl)isoxazol-5-yl)phenyl)ethynyl)-3,6-dihydropyridin-1(2H)-yl)methanone], the results for the minimum inhibitory concentration (MIC) in assay [1] and in assay [2] were 1 µg/mL (≈ 2.26 µM) and 0.25 µg/mL (≈ 0.565 µM), respectively. Further, in assay [3], the IC50 was determined as 19 nM.

In the case of `C[C@H](O)c1nccn1Cc1cc(-c2ccc(C#CC3=CCN(C(=O)Cn4cncn4)CC3)cc2)on1` [Example 37, (S)-1-(4-((4-(3-((2-(1-hydroxyethyl)-1H-imidazol-1-yl)methyl)isoxazol-5-yl)phenyl)ethynyl)-3,6-dihydropyridin-1(2H)-yl)-2-(1H-1,2,4-triazol-1-yl)ethan-1-one], the minimal inhibitory concentration (MIC) in assay [1] and in assay [2] was 2 µg/mL (≈ 4.14 µM) each time.

Consider `C[C@H](O)c1nccn1Cc1cc(-c2ccc(C#CC3=CCN(C(=O)c4cnccn4)CC3)cc2)on1` [Example 38, (S)-(4-((4-(3-((2-(1-hydroxyethyl)-1H-imidazol-1-yl)methyl)isoxazol-5-yl)phenyl)ethynyl)-3,6-dihydropyridin-1(2H)-yl)(pyrazin-2-yl)methanone], for which the results for the MIC in assay [1] and in assay [2] were 0.25 µg/mL (≈ 0.52 µM) and 0.5 µg/mL (≈ 1.04 µM), respectively. Moreover, in assay [3], the IC50 turned out to be 22.7 nM.

`C[C@H](O)c1nccn1Cc1cc(-c2ccc(C#CC3=CCN(C(=O)c4ccnnc4)CC3)cc2)on1` [Example 39, (S)-(4-((4-(3-((2-(1-hydroxyethyl)-1H-imidazol-1-yl)methyl)isoxazol-5-yl)phenyl)ethynyl)-3,6-dihydropyridin-1(2H)-yl)(pyridazin-4-yl)methanone]: the MIC in assay [1] came out at 2 µg/mL (≈ 4.16 µM); in assay [2], 1 µg/mL (≈ 2.08 µM). For the same compound, the 50% inhibitory concentration (IC50) in assay [3] was 21.7 nM.

Consider `C[C@H](O)c1nccn1Cc1cc(-c2ccc(C#CC3=CCN(C(=O)c4cncnc4)CC3)cc2)on1` [Example 40, (S)-(4-((4-(3-((2-(1-hydroxyethyl)-1H-imidazol-1-yl)methyl)isoxazol-5-yl)phenyl)ethynyl)-3,6-dihydropyridin-1(2H)-yl)(pyrimidin-5-yl)methanone], for which the minimal inhibitory concentration (MIC) in assay [1] amounted to 2 µg/mL (≈ 4.16 µM); in assay [2], 0.5 µg/mL (≈ 1.04 µM). For the same compound, in assay [3], the IC50 was found to be 21.4 nM.

For `C[C@H](O)c1nccn1Cc1cc(-c2ccc(C#CC3=CCN(C(=O)C4CCOC4)CC3)cc2)on1` (stereo partly drawn) [Example 41, (4-((4-(3-((2-((S)-1-hydroxyethyl)-1H-imidazol-1-yl)methyl)isoxazol-5-yl)phenyl)ethynyl)-3,6-dihydropyridin-1(2H)-yl)(tetrahydrofuran-3-yl)methanone], the results for the minimum inhibitory concentration (MIC) in assay [1] and in assay [2] were 1 µg/mL (≈ 2.12 µM) and 0.25 µg/mL (≈ 0.529 µM), respectively. The IC50 in assay [3] is 22.3 nM.

Regarding `C[C@H](O)c1nccn1Cc1cc(-c2ccc(C#CC3=CCN(C(=O)C4COCCN4)CC3)cc2)on1` (stereo partly drawn) [Example 42, (4-((4-(3-((2-((S)-1-hydroxyethyl)-1H-imidazol-1-yl)methyl)isoxazol-5-yl)phenyl)ethynyl)-3,6-dihydropyridin-1(2H)-yl)(morpholin-3-yl)methanone], the MIC is 4 µg/mL (≈ 8.2 µM) in assay [1] and 2 µg/mL (≈ 4.1 µM) in assay [2].

Take `C[C@H](O)c1nccn1Cc1cc(-c2ccc(C#CC3=CCN(CCn4cncn4)CC3)cc2)on1` [Example 43, (S)-1-(1-((5-(4-((1-(2-(1H-1,2,4-triazol-1-yl)ethyl)-1,2,3,6-tetrahydropyridin-4-yl)ethynyl)phenyl)isoxazol-3-yl)methyl)-1H-imidazol-2-yl)ethan-1-ol]: the values for the minimal inhibitory concentration (MIC) in assay [1] and in assay [2] were 2 µg/mL (≈ 4.26 µM) and 1 µg/mL (≈ 2.13 µM), respectively. Moreover, the concentration for half-maximal inhibition (IC50) in assay [3] was 25.8 nM.

Take `C[C@H](O)c1nccn1Cc1cc(-c2ccc(C#CC3=CCN(CCC#N)CC3)cc2)on1` [Example 44, (S)-3-(4-((4-(3-((2-(1-hydroxyethyl)-1H-imidazol-1-yl)methyl)isoxazol-5-yl)phenyl)ethynyl)-3,6-dihydropyridin-1(2H)-yl)propanenitrile]: the MIC is 1 µg/mL (≈ 2.34 µM) in assay [1] and 0.5 µg/mL (≈ 1.17 µM) in assay [2]. Also, the IC50 in assay [3] worked out at 24.9 nM.

For the compound `C[C@H](O)c1nccn1Cc1cc(-c2ccc(C#CC3=CCN(C(=O)c4cccnc4)CC3)cc2)on1` [Example 45, (S)-(4-((4-(3-((2-(1-hydroxyethyl)-1H-imidazol-1-yl)methyl)isoxazol-5-yl)phenyl)ethynyl)-3,6-dihydropyridin-1(2H)-yl)(pyridin-3-yl)methanone], the MIC in assay [1] amounted to 1 µg/mL (≈ 2.09 µM); in assay [2], 0.5 µg/mL (≈ 1.04 µM). The IC50 in assay [3] is 12.3 nM.

For the compound `C[C@H](O)c1nccn1Cc1cc(-c2ccc(C#CC3CC4(C3)CN(C(=O)c3ncn[nH]3)C4)cc2)on1` [Example 55, (S)-(6-((4-(3-((2-(1-hydroxyethyl)-1H-imidazol-1-yl)methyl)isoxazol-5-yl)phenyl)ethynyl)-2-azaspiro[3.3]heptan-2-yl)(1H-1,2,4-triazol-5-yl)methanone], the minimum inhibitory concentration (MIC) in assay [1] and in assay [2] was 2 µg/mL (≈ 4.14 µM) each time. In assay [3], the half-inhibitory concentration (IC50) was 14.7 nM.

As to `C[C@H](O)c1nccn1Cc1cc(-c2ccc(C#CC3=CCN(C=O)CC3)cc2)on1` [Example 57, (S)-4-((4-(3-((2-(1-hydroxyethyl)-1H-imidazol-1-yl)methyl)isoxazol-5-yl)phenyl)ethynyl)-3,6-dihydropyridine-1(2H)-carbaldehyde], the MIC in assay [1] is 2 µg/mL (≈ 4.97 µM); in assay [2], 1 µg/mL (≈ 2.48 µM). Besides, the half-maximal inhibitory concentration (IC50) in assay [3] amounted to 29.4 nM.

As for `C[C@H](O)c1nccn1Cc1cc(-c2ccc(C#CC3=CCN(C(N)=O)CC3)cc2)on1` [Example 58, (S)-4-((4-(3-((2-(1-hydroxyethyl)-1H-imidazol-1-yl)methyl)isoxazol-5-yl)phenyl)ethynyl)-3,6-dihydropyridine-1(2H)-carboxamide], the MIC in assay [1] and in assay [2] was 1 µg/mL (≈ 2.4 µM) throughout. Further, the IC50 in assay [3] stood at 19.2 nM.

For the compound `C[C@H](O)c1nccn1Cc1cc(-c2ccc(C#CC3=CCN(CC(N)=O)CC3)cc2)on1` [Example 59, (S)-2-(4-((4-(3-((2-(1-hydroxyethyl)-1H-imidazol-1-yl)methyl)isoxazol-5-yl)phenyl)ethynyl)-3,6-dihydropyridin-1(2H)-yl)acetamide], the values for the MIC in assay [1] and in assay [2] were 2 µg/mL (≈ 4.64 µM) and 0.5 µg/mL (≈ 1.16 µM), respectively. Besides, the IC50 in assay [3] came out at 23.8 nM.

Take `C[C@H](O)c1nccn1Cc1cc(-c2ccc(C#CC3=CCN(C(=O)N4CCOCC4)CC3)cc2)on1` [Example 60, (S)-(4-((4-(3-((2-(1-hydroxyethyl)-1H-imidazol-1-yl)methyl)isoxazol-5-yl)phenyl)ethynyl)-3,6-dihydropyridin-1(2H)-yl)(morpholino)methanone]: the values for the minimum inhibitory concentration (MIC) in assay [1] and in assay [2] were 2 µg/mL (≈ 4.1 µM) and 1 µg/mL (≈ 2.05 µM), respectively. For the same compound, the IC50 in assay [3] stood at 25.3 nM.

With `C[C@H](O)c1nccn1Cc1cc(-c2ccc(C#CC3=CCN(C(=O)c4ccccn4)CC3)cc2)on1` [Example 61, (S)-(4-((4-(3-((2-(1-hydroxyethyl)-1H-imidazol-1-yl)methyl)isoxazol-5-yl)phenyl)ethynyl)-3,6-dihydropyridin-1(2H)-yl)(pyridin-2-yl)methanone], the values for the minimal inhibitory concentration (MIC) in assay [1] and in assay [2] were 1 µg/mL (≈ 2.09 µM) and 0.5 µg/mL (≈ 1.04 µM), respectively. In assay [3], the 50% inhibitory concentration (IC50) was found to be 11.5 nM.

Consider `CC(=O)N1CC=C(C#Cc2ccc(-c3cc(Cn4ccnc4[C@H](C)O)no3)cc2)CC1` [Example 62, (S)-1-(4-((4-(3-((2-(1-hydroxyethyl)-1H-imidazol-1-yl)methyl)isoxazol-5-yl)phenyl)ethynyl)-3,6-dihydropyridin-1(2H)-yl)ethan-1-one], for which the minimal inhibitory concentration (MIC) in assay [1] and in assay [2] was 0.5 µg/mL (≈ 1.2 µM) in each case. Further, the half-inhibitory concentration (IC50) in assay [3] was 18 nM.

The values are drawn from US20260365641A1, “Aromatic Acetylene Derivative, Preparation Method Therefor, And Use Thereof” (Zhejiang Hisun Pharmaceutical Co., Ltd., priority 2022, published 2026).
